Assay results reported in patent US20070197426A1, “Lactoferrin polypeptide, process for producing the same and inflammation inducing substance” (priority 2004, published 2007).

Key:
Assay type in all cases: cell-based
Settings in all cases: normal human peripheral blood lymphocytes
[1] = test system: IL-8; assay: IL-8 production by human peripheral blood lymphocytes co-cultured with peptide (enzyme antibody method)
Description: (§1) Lymphocytes were separated from normal human peripheral blood, which was collected by using heparin sodium, by specific gravity centrifugation using Lympholight H (Cedarlane, Canada), and inducing ability for production of various cytokines and chemokines and inducing ability for expression of NFκBp65, a cellular transcription factor, were analyzed using the lymphocytes. Human cytokines (IL-6 and TNFα; Techne Co., USA), chemokines (IL-8 and MCP-1; American Research Product, Inc., USA) and on NFκB (TransAM NFκB family transcription factor assay kit; Active Motif, Co., USA) were measured by enzyme antibody method.

[2] = test system: MCP-1; assay: MCP-1 production by human peripheral blood lymphocytes co-cultured with peptide (enzyme antibody method)
Description: as §1

[3] = test system: IL-6; assay: IL-6 production by human peripheral blood lymphocytes co-cultured with peptide (enzyme antibody method)
Description: as §1

[4] = test system: NFκBp65; assay: NFκBp65 expression in human peripheral blood lymphocytes (TransAM NFκB family transcription factor assay kit)
Description: as §1

| Substance | inducing ability for production of IL-8 [1] | inducing ability for production of MCP-1 [2] | production of IL-6, one inflammatory cytokine [3] | enhancement of expression of NFκBp65, a cellular transcription factor [4] |
| --- | --- | --- | --- | --- |
| FKDCHLA [HuPep1] | confirmed | confirmed | could be confirmed | confirmed |
| GQKDLLFKDSAI [HuPep4] | confirmed | confirmed | could be confirmed | confirmed |
